Like-named read-outs stand apart in the source and are kept apart here.
Experiments:
[1] = tested on: HT-29 colorectal cancer cells; assay: 2D antiproliferation on MSS HT-29 cells, CTG, 5 days; assay type: cell-based; conditions: Homo sapiens, 120 h, HT-29 MSS
Description: The molecules of the invention were tested for their anti-proliferative activities on MSS tumor cells.
HT-29 colorectal cancer cells with MSS were cultured in a McCoy's 5A medium containing 10% FBS and 1% penicillin-streptomycin in a 37° C., 5% CO2 constant temperature incubator. 40 μL of cell suspension was added to each well of a 384-well microplate. […] of compounds with different concentrations were added to each well using Echo. The mixtures were cultured in a 37° C., 5% CO2 constant temperature incubator for 5 days. 40 μL of CTG solution (Promega, Cat No. G7573) was added to each well, and the mixture was incubated in a 37° C., 5% CO2 constant temperature incubator for 30 minutes in the dark. The luminescence value was read using an Envision multi-function microplate reader (Perkin Elmer, catalog number Envision 2104). The optical signal is proportional to the amount of ATP in the system, while the ATP content directly characterizes the number of viable cells in the system.

WRN enzyme = biological target: T1, WRN enzyme (Homo sapiens, UniProt Q14191); assay: WRN helicase hydrolysis (unwinding) of double-stranded DNA, fluorescence assay; assay type: biochemical; conditions: 30 min pre-incubation, 60 min reaction
T1 construct: 10 μL (2×) of WRN enzyme solution was added
T1 sequence (Q14191 whole entry): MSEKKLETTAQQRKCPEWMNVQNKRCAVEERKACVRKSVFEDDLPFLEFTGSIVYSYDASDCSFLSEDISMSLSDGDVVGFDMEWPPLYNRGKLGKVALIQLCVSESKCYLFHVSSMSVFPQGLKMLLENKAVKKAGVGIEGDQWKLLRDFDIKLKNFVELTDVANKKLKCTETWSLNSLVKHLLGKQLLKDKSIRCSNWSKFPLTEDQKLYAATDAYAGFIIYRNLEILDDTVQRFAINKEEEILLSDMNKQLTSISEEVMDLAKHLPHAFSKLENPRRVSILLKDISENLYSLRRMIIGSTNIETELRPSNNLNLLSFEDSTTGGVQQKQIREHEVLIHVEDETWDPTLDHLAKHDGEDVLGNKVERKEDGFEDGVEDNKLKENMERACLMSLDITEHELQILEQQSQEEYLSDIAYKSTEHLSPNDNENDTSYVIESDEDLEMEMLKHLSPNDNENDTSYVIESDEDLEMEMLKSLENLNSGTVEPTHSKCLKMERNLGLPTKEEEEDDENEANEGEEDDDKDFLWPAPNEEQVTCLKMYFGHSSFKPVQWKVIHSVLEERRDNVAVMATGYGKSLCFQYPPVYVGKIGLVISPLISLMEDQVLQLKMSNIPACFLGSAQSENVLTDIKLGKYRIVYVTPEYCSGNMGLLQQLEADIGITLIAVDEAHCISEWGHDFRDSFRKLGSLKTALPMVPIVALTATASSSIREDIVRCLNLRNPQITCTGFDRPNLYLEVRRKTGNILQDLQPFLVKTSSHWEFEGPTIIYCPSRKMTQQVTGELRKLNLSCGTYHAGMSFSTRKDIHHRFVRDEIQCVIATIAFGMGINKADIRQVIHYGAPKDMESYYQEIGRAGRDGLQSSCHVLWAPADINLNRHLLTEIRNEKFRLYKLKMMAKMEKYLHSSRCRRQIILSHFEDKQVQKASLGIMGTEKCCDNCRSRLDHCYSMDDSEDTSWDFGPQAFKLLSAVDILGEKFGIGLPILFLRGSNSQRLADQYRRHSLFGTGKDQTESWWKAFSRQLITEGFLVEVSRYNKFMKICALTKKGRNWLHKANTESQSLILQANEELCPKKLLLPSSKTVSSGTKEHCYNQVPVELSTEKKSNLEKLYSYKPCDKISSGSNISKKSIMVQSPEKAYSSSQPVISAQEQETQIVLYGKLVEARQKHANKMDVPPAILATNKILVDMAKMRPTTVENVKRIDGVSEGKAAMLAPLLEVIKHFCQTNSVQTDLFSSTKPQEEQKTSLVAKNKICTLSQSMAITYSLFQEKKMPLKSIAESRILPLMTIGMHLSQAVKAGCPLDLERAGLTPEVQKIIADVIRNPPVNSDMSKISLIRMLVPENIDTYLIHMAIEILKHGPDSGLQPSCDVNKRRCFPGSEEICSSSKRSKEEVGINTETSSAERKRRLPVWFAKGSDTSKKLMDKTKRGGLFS
Description: • The molecules of the present disclosure were tested for their activities on the WRN helicase hydrolysis of double-stranded DNA (Table 1).
A working solution to be tested and a buffer were prepared. The compound to be tested was dissolved in DMSO and subjected to 4× dilution (with 10 μM final concentration as the starting concentration). 0.2 μL of the solution of the compound to be tested was added to the 384-well plate and 10 μL (2×) of WRN enzyme solution was added. The solution was incubated in the dark for 30 minutes. Then, 10 μL of a substrate detection solution containing double-stranded DNA was added to initiate the reaction (the DNA has a length of 19 bp, and labeled with TAMRA and BHQ2 at 3′ and 5′-ends, respectively). The solution was incubated at room temperature for 60 minutes. The inhibitory activities (IC50) against WRN enzyme were calculated based on the change of Ex530/Em590 in the blank group (DMSO) and the compound group.

[2] = tested on: SW48 (MSI-H) colorectal cancer tumor cells; assay: In vivo efficacy, SW48 xenograft in nude mice; parameters: species or system BALB/c nude mice; conditions: QD, oral; for TGI: 21 days; for Tumor Volume D 1: day 1; for Tumor volume D 21: day 21
Description: In vivo efficacy experiment in BALB/C nude mice. Details are as follows:
SW48 (MSI-H) colorectal cancer tumor cells were cultured (in an L15 medium with 10% fetal bovine serum), and inoculated into 6-8 week old female BALB/c nude mice (with body weight of about 20 g). All the mice were inoculated subcutaneously. The mice were raised in an SPF-grade experimental environment, and all the mice were free to take commercially certified standard diets. When the tumors grew to an average volume of about 160 mm^3 in mice, the test compound was orally administered daily. […] The tumor volume was measured with a two-dimensional caliper three times a week, and the animals were weighed every day. […] The volume calculation formula is: V=1/2a*b^2, where a represents the long diameter of the tumor and b represents the short diameter of the tumor.

[3] = tested on: SW48 colorectal cancer cells; assay: 2D antiproliferation on MSI-H SW48 cells, CTG, 5 days; assay type: cell-based; conditions: for IC50 / inhibition at 38.15 pM / inhibition at 0.000152588 µM / inhibition at 0.000610352 µM / inhibition at 0.00976562 µM / inhibition at 0.0390625 µM / inhibition at 0.15625 µM / inhibition at 0.625 µM / inhibition at […] / inhibition at 10 µM: Homo sapiens; for IC50: 120 h, SW48 MSI-H, 5 days; for inhibition at 38.15 pM: SW48, 0.038146973 nM; for inhibition at 0.000152588 µM: SW48, 0.152587891 nM; for inhibition at 0.000610352 µM: SW48, 0.610351563 nM; for inhibition at 0.00976562 µM: SW48, 9.765625 nM; for inhibition at 0.0390625 µM: SW48, 39.0625 nM; for inhibition at 0.15625 µM: SW48, 156.25 nM; for inhibition at 0.625 µM: SW48, 625 nM; for inhibition at […]: SW48, 2500 nM; for inhibition at 10 µM: SW48, 10000 nM
Description: The molecules of the present disclosure were tested for their anti-proliferative activity on MSI-H tumor cells.
SW48 colorectal cancer cells with MSI were cultured in a RMI1640 medium containing 10% FBS and 1% penicillin-streptomycin, and the mixture was cultured in a 37° C., 5% CO2 incubator. 40 μL of cell suspension was added to each well of a 384-well microplate. […] of compounds with different concentrations were added to each well using Echo, and the mixtures were cultured in a 37° C., 5% CO2 incubator for 5 days. 40 μL of CTG solution (Promega, Cat No. G7573) was added to each well and incubated in a 37° C., 5% CO2 incubator in the dark for 30 minutes. The luminescence value was read using an Envision multi-function microplate reader (Perkin Elmer, catalog number Envision 2104). The optical signal is proportional to the amount of ATP in the system, while the ATP content directly characterizes the number of viable cells in the system.

in vivo = conditions: female, CD1, mouse
Description: (§1) Mouse Pharmacokinetic Evaluation Experiment
(§2) CD1 female mice were used as test animals to be administered orally/intravenously (with oral dosage of 10 mg/kg or intravenous dosage of 2 mg/kg).
(§3) Experimental scheme: The oral administration group comprised 3 mice per group (Solvent: 10% Hβ-CD-pH7.4), and the intravenous group comprised 3 mice per group. […] The blood concentration in the plasma of mice was determined using the LC/MS/MS method after the oral or intravenous administration, respectively, and the collected data were calculated using the AB Sciex QTRAP 6500 software.

[4] = female, CD1, mouse, in vivo
Description: as §1, §2, §3

[5] = read-out: Average Value/Inhibition Rate
[6] = read-out: Test 1/Inhibition Rate
[7] = read-out: Test 2/Inhibition Rate

`CCc1c(N2CCN(C(=O)c3ncnc(C)c3O)CC2)c(=O)n2nc(-c3cc4c(s3)COC4)nc2n1CC(=O)Nc1ccc(C(F)(F)F)cc1Cl` [P7] gave an IC50 [1] of over 10000 nM, an IC50 (WRN enzyme) of 1.4 nM and a TGI ([2]; 20 mg/kg) of 82%. The “Tumor Volume D 1” value ([2]; 20 mg/kg) was 158 mm^3, the “Tumor volume D 21” value ([2]; 20 mg/kg) was 491 mm^3 and the TGI ([2]; 50 mg/kg) was 105%. For the same molecule, the “Tumor Volume D 1” value ([2]; 50 mg/kg) was 158 mm^3, the “Tumor volume D 21” value ([2]; 50 mg/kg) was 71 mm^3 and the TGI ([2]; 120 mg/kg) was 105%. For the same molecule, the “Tumor Volume D 1” value ([2]; 120 mg/kg) was 174 mm^3, the “Tumor volume D 21” value ([2]; 120 mg/kg) was 24 mm^3 and the “inhibitory activity on SW48 cells” value ([3]; 39 nM) was “high inhibitory activity”. It also gave an IC50 [3] of 39 nM, an inhibition at 38.15 pM [3, 5] of 6.64% and an inhibition at 38.15 pM [3, 6] of 2.01%. For the same molecule, the inhibition at 38.15 pM [3, 7] was 11.3%, the inhibition at 0.000152588 µM [3, 5] was 3.66% and the inhibition at 0.000152588 µM [3, 6] was -6.35%. The inhibition at 0.000152588 µM [3, 7] was 13.7%, the inhibition at 0.000610352 µM [3, 5] was 4.19% and the inhibition at 0.000610352 µM [3, 6] was -2.7%. The inhibition at 0.000610352 µM [3, 7] was 11.1%, the inhibition at 0.00976562 µM [3, 5] was 2.23% and the inhibition at 0.00976562 µM [3, 6] was -0.534%. For the same molecule, the inhibition at 0.00976562 µM [3, 7] was 4.98%, the inhibition at 0.0390625 µM [3, 5] was 54.8% and the inhibition at 0.0390625 µM [3, 6] was 56%. It also gave an inhibition at 0.0390625 µM [3, 7] of 53.6%, an inhibition at 0.15625 µM [3, 5] of 99% and an inhibition at 0.15625 µM [3, 6] of 98.8%. It also gave an inhibition at 0.15625 µM [3, 7] of 99.2%, an inhibition at 0.625 µM [3, 5] of 100% and an inhibition at 0.625 µM [3, 6] of 100%. It also gave an inhibition at 0.625 µM [3, 7] of 100%, an inhibition at […] [3, 5] of 101% and an inhibition at […] [3, 6] of 101%. For the same molecule, the inhibition at 10 µM [3, 5] was 101%, the inhibition at 10 µM [3, 6] was 101% and the inhibition at 10 µM [3, 7] was 101%.
`CCc1c(N2CCN(C(=O)c3ncccc3O)CC2)c(=O)n2nc(-c3ccc(CO)s3)nc2n1CC(=O)Nc1ccc(C(F)(F)F)cc1Cl` [P9] gave an IC50 [1] of over 10000 nM, an IC50 (WRN enzyme) of 1.2 nM and an AUC(0-t) (in vivo; iv, 2 mg/kg) of 1230 ng·h/mL. It also gave a C0 (in vivo; iv, 2 mg/kg) of 2840 ng/mL, a clearance (in vivo; iv, 2 mg/kg) of 27 mL/min/kg and a half-life (in vivo; iv, 2 mg/kg) of 0.9 h. The AUC(0-t) (in vivo; po, 10 mg/kg) was 1520 ng·h/mL, the Cmax (in vivo; po, 10 mg/kg) was 695 ng/mL and the Tmax (in vivo; po, 10 mg/kg) was 1 h. It also gave a half-life (in vivo; po, 10 mg/kg) of 1.4 h, an F [4] of 25% and an IC50 [3] of 54 nM.

Source: patent publication US20260217732A1, “WRN INHIBITOR” (SUZHOU PUHE BIOPHARMA CO., LTD., priority 2022, published 2026)
